Results reported in publication PMC5867518 (Cell metabolism, 2015).
pIC50: −log10 of the molar value.

Experiments:
Experiment in all cases: PI3-kinase
Assay type in all cases: biochemical
[1] = biological target: PI3Kα (p110α/p85α) (Homo sapiens, UniProt P42336)
[2] = biological target: PI3Kδ (p110δ/p85α) (Homo sapiens, UniProt O00329)
[3] = biological target: PI3Kγ (p110γ) (Homo sapiens, UniProt P48736)
Sequence of PI3Kγ (p110γ) (P48736 whole entry): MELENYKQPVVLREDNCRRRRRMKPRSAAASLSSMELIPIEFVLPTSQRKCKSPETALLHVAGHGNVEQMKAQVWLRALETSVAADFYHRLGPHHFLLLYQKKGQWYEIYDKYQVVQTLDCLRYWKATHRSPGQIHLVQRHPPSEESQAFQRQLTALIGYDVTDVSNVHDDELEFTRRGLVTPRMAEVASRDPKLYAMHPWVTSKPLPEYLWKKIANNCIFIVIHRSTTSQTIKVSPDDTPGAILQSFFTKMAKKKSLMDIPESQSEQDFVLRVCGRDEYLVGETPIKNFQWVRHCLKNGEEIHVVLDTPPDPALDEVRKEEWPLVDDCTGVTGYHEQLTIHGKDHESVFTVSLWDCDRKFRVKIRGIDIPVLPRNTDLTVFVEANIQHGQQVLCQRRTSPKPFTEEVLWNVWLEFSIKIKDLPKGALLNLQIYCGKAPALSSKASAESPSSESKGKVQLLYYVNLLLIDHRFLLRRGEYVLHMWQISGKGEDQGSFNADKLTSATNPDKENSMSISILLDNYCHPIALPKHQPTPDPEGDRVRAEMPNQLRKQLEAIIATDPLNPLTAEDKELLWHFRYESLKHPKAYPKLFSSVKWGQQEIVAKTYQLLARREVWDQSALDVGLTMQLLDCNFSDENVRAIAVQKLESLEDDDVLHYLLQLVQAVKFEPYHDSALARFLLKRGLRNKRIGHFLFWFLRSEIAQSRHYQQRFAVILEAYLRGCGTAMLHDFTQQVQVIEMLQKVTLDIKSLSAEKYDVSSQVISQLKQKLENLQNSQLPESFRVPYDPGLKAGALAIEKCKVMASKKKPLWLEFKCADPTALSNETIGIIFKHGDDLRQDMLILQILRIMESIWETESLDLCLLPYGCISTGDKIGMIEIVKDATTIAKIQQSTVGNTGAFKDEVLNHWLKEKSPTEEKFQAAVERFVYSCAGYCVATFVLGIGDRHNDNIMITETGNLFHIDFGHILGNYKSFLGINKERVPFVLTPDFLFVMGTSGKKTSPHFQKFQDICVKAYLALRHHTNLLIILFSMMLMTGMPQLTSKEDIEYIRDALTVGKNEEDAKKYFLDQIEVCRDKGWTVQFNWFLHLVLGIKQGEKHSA

Sequence of PI3Kδ (p110δ/p85α) (O00329 whole entry): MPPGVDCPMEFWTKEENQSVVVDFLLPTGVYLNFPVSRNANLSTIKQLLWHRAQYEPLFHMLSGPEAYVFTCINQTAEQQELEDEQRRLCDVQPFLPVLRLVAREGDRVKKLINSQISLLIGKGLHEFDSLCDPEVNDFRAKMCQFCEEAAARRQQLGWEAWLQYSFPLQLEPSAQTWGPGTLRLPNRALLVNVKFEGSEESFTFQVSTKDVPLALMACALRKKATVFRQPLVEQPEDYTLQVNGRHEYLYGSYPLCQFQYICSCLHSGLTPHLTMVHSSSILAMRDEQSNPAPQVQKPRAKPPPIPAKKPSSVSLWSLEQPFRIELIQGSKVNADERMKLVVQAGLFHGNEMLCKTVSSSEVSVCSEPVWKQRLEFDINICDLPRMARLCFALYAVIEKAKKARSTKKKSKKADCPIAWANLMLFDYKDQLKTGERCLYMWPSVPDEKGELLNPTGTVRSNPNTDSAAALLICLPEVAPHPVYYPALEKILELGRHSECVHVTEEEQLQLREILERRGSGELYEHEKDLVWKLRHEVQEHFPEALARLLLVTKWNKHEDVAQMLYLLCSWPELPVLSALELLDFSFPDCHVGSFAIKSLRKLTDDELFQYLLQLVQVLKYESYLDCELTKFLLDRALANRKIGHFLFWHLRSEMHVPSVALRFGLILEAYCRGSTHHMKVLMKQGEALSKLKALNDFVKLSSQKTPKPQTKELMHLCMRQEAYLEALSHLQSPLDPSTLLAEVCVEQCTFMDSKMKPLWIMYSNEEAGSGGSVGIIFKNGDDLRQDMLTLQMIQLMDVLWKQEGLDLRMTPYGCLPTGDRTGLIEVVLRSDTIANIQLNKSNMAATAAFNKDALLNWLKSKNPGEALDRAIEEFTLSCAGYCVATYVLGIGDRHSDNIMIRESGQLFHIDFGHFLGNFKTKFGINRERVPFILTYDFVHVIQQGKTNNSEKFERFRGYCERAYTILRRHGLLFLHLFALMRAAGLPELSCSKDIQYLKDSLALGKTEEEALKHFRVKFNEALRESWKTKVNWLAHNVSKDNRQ
Sequence of PI3Kδ (p110δ/p85α) (P27986 2-724 partner): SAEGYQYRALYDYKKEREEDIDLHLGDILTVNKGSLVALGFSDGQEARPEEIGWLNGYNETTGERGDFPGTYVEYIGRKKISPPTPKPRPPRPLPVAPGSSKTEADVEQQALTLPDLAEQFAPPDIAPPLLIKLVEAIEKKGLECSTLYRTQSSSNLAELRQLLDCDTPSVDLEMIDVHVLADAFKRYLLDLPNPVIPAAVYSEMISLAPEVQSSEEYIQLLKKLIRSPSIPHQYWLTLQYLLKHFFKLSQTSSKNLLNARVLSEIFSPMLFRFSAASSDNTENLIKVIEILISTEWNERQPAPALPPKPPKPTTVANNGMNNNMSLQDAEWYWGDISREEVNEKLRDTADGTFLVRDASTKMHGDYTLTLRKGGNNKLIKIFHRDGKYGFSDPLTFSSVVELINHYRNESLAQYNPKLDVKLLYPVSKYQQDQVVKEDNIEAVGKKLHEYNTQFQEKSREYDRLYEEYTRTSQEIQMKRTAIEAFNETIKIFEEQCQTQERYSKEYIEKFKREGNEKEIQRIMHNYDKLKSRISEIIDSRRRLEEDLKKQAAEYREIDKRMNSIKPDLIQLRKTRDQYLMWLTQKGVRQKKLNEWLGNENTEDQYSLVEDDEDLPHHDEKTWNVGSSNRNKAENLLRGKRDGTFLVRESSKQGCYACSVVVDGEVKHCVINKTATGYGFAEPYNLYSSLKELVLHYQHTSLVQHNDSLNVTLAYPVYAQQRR
Sequence of PI3Kα (p110α/p85α) (P42336 whole entry): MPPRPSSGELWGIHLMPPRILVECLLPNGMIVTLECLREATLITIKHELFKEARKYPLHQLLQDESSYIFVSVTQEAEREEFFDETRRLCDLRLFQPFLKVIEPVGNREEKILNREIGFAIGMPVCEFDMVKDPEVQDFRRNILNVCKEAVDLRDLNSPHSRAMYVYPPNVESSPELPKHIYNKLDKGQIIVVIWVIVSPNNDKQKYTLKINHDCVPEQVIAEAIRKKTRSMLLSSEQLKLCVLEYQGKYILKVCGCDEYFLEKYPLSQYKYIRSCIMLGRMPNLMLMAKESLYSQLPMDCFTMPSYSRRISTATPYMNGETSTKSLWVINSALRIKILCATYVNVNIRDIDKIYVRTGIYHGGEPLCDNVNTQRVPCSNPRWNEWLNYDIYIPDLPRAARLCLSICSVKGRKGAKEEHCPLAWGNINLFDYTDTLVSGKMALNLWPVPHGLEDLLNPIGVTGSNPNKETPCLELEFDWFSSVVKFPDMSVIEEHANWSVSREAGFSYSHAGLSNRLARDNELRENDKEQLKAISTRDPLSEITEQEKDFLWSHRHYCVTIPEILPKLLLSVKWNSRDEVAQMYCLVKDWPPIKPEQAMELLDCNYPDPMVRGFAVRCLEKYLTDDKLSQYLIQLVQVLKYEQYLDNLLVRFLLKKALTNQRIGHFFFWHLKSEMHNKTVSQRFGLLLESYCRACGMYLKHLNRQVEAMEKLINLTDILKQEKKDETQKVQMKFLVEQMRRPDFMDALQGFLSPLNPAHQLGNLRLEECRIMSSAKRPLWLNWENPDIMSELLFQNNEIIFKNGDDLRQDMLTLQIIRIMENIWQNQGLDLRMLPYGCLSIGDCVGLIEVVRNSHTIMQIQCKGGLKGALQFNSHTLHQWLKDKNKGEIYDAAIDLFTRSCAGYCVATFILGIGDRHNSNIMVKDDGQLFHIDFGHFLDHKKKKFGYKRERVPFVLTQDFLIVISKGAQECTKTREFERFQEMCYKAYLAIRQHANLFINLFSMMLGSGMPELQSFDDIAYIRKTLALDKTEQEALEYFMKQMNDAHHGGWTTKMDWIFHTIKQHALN
Sequence of PI3Kα (p110α/p85α) (P27986 2-724 partner): as the sequence (P27986 2-724 partner) above

CNIO-PI3Ki was tested. Which pIC50 [1] did it give?
Its pIC50 is 8.62.

And the pIC50 [2]?
Its pIC50 is 8.60.

And the pIC50 [3]?
The pIC50 was 7.36.
